Biological target: T1, human mAChR M4 (Homo sapiens, UniProt P08173)
T1 sequence (P08173 1-479): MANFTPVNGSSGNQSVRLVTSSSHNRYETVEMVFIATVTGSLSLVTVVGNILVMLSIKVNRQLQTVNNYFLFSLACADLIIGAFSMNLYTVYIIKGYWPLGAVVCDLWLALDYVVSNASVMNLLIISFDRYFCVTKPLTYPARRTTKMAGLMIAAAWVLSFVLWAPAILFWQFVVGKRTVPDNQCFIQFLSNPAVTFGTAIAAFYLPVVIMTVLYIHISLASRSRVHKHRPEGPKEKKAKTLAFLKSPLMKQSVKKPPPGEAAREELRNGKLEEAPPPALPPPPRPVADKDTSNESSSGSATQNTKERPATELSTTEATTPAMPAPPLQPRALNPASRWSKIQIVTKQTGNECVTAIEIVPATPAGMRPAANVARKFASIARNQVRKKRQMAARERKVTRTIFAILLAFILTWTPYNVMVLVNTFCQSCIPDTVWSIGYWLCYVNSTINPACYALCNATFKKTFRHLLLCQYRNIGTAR
Assay: mAChR M4 cell-based functional assay (calcium flux), human M4
Conditions: for EC50: Human M4 EC50 (nM), calcium flux, PAM activity with EC20 acetylcholine; for Emax: % ACh maximum at 30 μM

| SMILES | EC50 (Table 10) [nM] | Emax (Table 10) [%] | EC50 (Table 11) [nM] | Emax (Table 11) [%] |
| --- | --- | --- | --- | --- |
| Cc1nnc2oc3c(NC4CC(F)(F)C4)ncnc3c2c1C [Compound 306, N-(3,3-difluoro-cyclobutyl)-3,4-dimethyl-pyrimido [4′,5′:4,5]furo[2,3-c]pyridazin-8-amine] | 1750 | 57.9 | – | – |
| Cc1nnc2oc3c(N4CC5(COC5)C4)ncnc3c2c1C [Compound 307, 3,4-dimethyl-8-(2-oxa-6-azaspiro[3.3]heptan-6-yl)pyrimido[4′,5′:4,5] furo[2,3-c]pyridazine] | 4840 | 46.1 | – | – |
| Cc1nnc2oc3c(NCc4ccc(C(C)(C)O)nc4)ncnc3c2c1C [Compound 308, 2-[5-[[(3,4-dimethylpyrimido [4′,5′:4,5]furo[2,3-c]pyridazin-8-yl)amino]methyl]-2-pyridyl]propan-2-ol] | 9160 | 59.5 | – | – |
| COc1ccc(CNc2ncnc3c2oc2nnc(C)c(C)c23)cc1 [Compound 309, N-[(4-methoxyphenyl)methyl]-3,4-dimethyl-pyrimido [4′,5′:4,5]furo[2,3-c]pyridazin-8-amine] | 403 | 73.6 | – | – |
| COc1cc(F)c(CNc2ncnc3c2oc2nnc(C)c(C)c23)c(F)c1 [Compound 310, N-[(2,6-difluoro-4-methoxy-phenyl)methyl]-3,4-dimethyl-pyrimido[4′,5′:4,5] furo[2,3-c]pyridazin-8-amine] | 845 | 53.2 | – | – |
| COc1c(F)cc(CNc2ncnc3c2oc2nnc(C)c(C)c23)cc1F [Compound 311, N-[(3,5-difluoro-4-methoxy-phenyl)methyl]-3,4-dimethyl-pyrimido[4′,5′:4,5] furo[2,3-c]pyridazin-8-amine] | 378 | 51 | – | – |
| Cc1nnc2oc3c(NCc4ccc(C(C)(O)C(F)(F)F)cc4)ncnc3c2c1C (stereo not shown) [Compound 312, 2-[4-[[(3,4-dimethylpyrimido [4′,5′:4,5]furo[2,3-c]pyridazin-8-yl)amino]methyl]phenyl]-1,1,1-trifluoro-propan-2-ol] | 909 | 70.2 | – | – |
| Cc1nnc2sc3c(NC4CN(c5ncc(Cl)cc5Cl)C4)ncnc3c2c1C [Compound 314, N-[1-(3,5-dichloro-2-pyridyl)azetidin-3-yl]-3,4-dimethyl-pyrimido [4′,5′:4,5]thieno[2,3-c] pyridazin-8-amine] | – | – | 1830 | 71.5 |
| Cc1nnc2sc3c(NC4CN(c5ncc(Cl)cc5F)C4)ncnc3c2c1C [Compound 315, N-[1-(5-chloro-3-fluoro-2-pyridyl)azetidin-3-yl]-3,4-dimethyl-pyrimido[4′,5′:4,5]thieno [2,3-c]pyridazin-8-amine] | – | – | 659 | 74.9 |
| Cc1nnc2sc3c(NCc4ccc(C(=O)NC5CC5(C)C)c(Cl)c4)ncnc3c2c1C (stereo not shown) [Compound 319, 2-chloro-N-(2,2-dimethylcyclopropyl)-4-[[(3,4-dimethylpyrimido [4′,5′:4,5]thieno[2,3-c]pyridazin-8-yl)amino]methyl]benzamide] | – | – | 544 | 75.6 |
| Cc1nnc2sc3c(NCc4ccc(C(=O)N[C@H](C)C(F)(F)F)c(Cl)c4)ncnc3c2c1C [Compound 320, 2-chloro-4-[[(3,4-dimethylpyrimido [4′,5′:4,5]thieno[2,3-c]pyridazin-8-yl)amino]methyl]-N-[(1R)-2,2,2-trifluoro-1-methyl-ethyl] benzamide] | – | – | 532 | 81.1 |
| Cc1nnc2sc3c(NCc4ccc(C(=O)NC(C)C5(CO)CC5)c(Cl)c4)ncnc3c2c1C (stereo not shown) [Compound 323, 2-chloro-4-[[(3,4-dimethylpyrimido [4′,5′:4,5]thieno[2,3-c]pyridazin-8-yl)amino]methyl]-N-[1-[1-(hydroxymethyl)cyclopropyl]ethyl]benzamide] | – | – | 449 | 76.3 |
| Cc1nnc2sc3c(NCc4ccc(-c5nccs5)cc4)ncnc3c2c1C [Compound 326, 3,4-dimethyl-N-[(4-thiazol-2-ylphenyl)methyl]pyrimido[4′,5′:4,5] thieno[2,3-c]pyridazin-8-amine] | – | – | 1070 | 64.9 |
| Cc1nnc2sc3c(NCc4cccc(-c5ncccn5)c4)ncnc3c2c1C [Compound 327, 3,4-dimethyl-N-[(3-pyrimidin-2-ylphenyl)methyl]pyrimido [4′,5′:4,5]thieno[2,3-c] pyridazin-8-amine] | – | – | 1770 | 64.6 |
| Cc1nnc2sc3c(NCc4cccc(-n5cccn5)c4)ncnc3c2c1C [Compound 328, 3,4-dimethyl-N-[(3-pyrazol-1-ylphenyl)methyl]pyrimido [4′,5′:4,5]thieno[2,3-c] pyridazin-8-amine] | – | – | 1970 | 63.6 |
| CNC(=O)c1cc(CN(C)c2ncnc3c2sc2nnc(C)c(C)c23)ccc1F [Compound 333, 5-[[(3,4-dimethylpyrimido [4′,5′:4,5]thieno[2,3-c]pyridazin-8-yl)(methyl)amino]methyl]-2-fluoro-N-methyl-benzamide] | – | – | 1810 | 39.1 |
| Cc1cc(CNc2ncnc3c2sc2nnc(C)c(C)c23)ccc1C(C)(C)O [Compound 334, 2-[4-[[(3,4-dimethylpyrimido [4′,5′:4,5]thieno[2,3-c]pyridazin-8-yl)amino]methyl]-2-methyl-phenyl]propan-2-ol] | – | – | – | 90.6 |
| Cc1cc(C(C)(C)O)ccc1CNc1ncnc2c1sc1nnc(C)c(C)c12 [Compound 335, 2-[4-[[(3,4-dimethylpyrimido [4′,5′:4,5]thieno[2,3-c]pyridazin-8-yl)amino]methyl]-3-methyl-phenyl]propan-2-ol] | – | – | – | 71.1 |

Next, values leading:

| EC50 (Table 10) [nM] | Emax (Table 10) [%] | EC50 (Table 11) [nM] | Emax (Table 11) [%] | SMILES |
| --- | --- | --- | --- | --- |
| – | – | 166 | 75.2 | Cc1nnc2sc3c(NCc4ccc(C(=O)NC5CC5)c(Cl)c4)ncnc3c2c1C [Compound 313, 2-chloro-N-cyclopropyl-4-[[(3,4-dimethylpyrimido[4′,5′:4,5]thieno[2,3-c]pyridazin-8-yl)amino]methyl]benzamide] |
| – | – | 216 | 83.8 | Cc1nnc2sc3c(NCc4ccc(C(=O)NC5CCC5)c(Cl)c4)ncnc3c2c1C [Compound 316, 2-chloro-N-cyclobutyl-4-[[(3,4-dimethylpyrimido [4′,5′:4,5]thieno[2,3-c]pyridazin-8-yl)amino]methyl]benzamide] |
| – | – | 323 | 75.1 | Cc1nnc2sc3c(NCc4ccc(C(=O)NC5CCCC5)c(Cl)c4)ncnc3c2c1C [Compound 317, 2-chloro-N-cyclopentyl-4-[[(3,4-dimethylpyrimido [4′,5′:4,5]thieno[2,3-c]pyridazin-8-yl)amino]methyl]benzamide] |
| – | – | 193 | 81.7 | Cc1nnc2sc3c(NCc4ccc(C(=O)NC(C)C)c(Cl)c4)ncnc3c2c1C [Compound 318, 2-chloro-4-[[(3,4-dimethylpyrimido[4′,5′:4,5]thieno[2,3-c]pyridazin-8-yl)amino]methyl]-N-isopropyl-benzamide] |
| – | – | 102 | 80.6 | Cc1nnc2sc3c(NCc4ccc(C(=O)NC5CC(F)C5)c(Cl)c4)ncnc3c2c1C (stereo not shown) [Compound 321, 2-chloro-4-[[(3,4-dimethylpyrimido [4′,5′:4,5]thieno[2,3-c]pyridazin-8-yl)amino]methyl]-N-(3-fluorocyclobutyl) benzamide] |
| – | – | 197 | 81.6 | Cc1nnc2sc3c(NCc4ccc(C(=O)NC5CC(F)(F)C5)c(Cl)c4)ncnc3c2c1C [Compound 322, 2-chloro-N-(3,3-difluorocyclobutyl)-4-[[(3,4-dimethylpyrimido [4′,5′:4,5]thieno[2,3-c]pyridazin-8-yl)amino]methyl]benzamide] |
| – | – | 164 | 84 | COCCNC(=O)c1ccc(CNc2ncnc3c2sc2nnc(C)c(C)c23)cc1Cl [Compound 324, 2-chloro-4-[[(3,4-dimethylpyrimido [4′,5′:4,5]thieno[2,3-c]pyridazin-8-yl)amino]methyl]-N-(2-methoxyethyl) benzamide] |
| – | – | 62.2 | 78.8 | CNC(=O)c1ccc(CNc2ncnc3c2sc2nnc(C)c(C)c23)cc1Cl [Compound 325, 2-chloro-4-[[(3,4-dimethylpyrimido [4′,5′:4,5]thieno[2,3-c]pyridazin-8-yl)amino]methyl]-N-methyl-benzamide] |
| – | – | 107 | 76.6 | Cc1nnc2sc3c(N4CC[C@H](Oc5ccnc(Cl)c5)C4)ncnc3c2c1C [Compound 329, 8-[(3S)-3-[(2-chloro-4-pyridyl)oxy]pyrrolidin-1-yl]-3,4-dimethyl-pyrimido [4′,5′:4,5]thieno[2,3-c] pyridazine] |
| – | – | 111 | 74.4 | Cc1cc(O[C@H]2CCN(c3ncnc4c3sc3nnc(C)c(C)c34)C2)ccn1 [Compound 330, 3,4-dimethyl-8-[(3S)-3-[(2-methyl-4-pyridyl)oxy]pyrrolidin-1-yl]pyrimido [4′,5′:4,5]thieno[2,3-c] pyridazine] |
| – | – | 142 | 80.6 | Cc1nnc2sc3c(N4CC[C@H](Oc5ccnc(C(F)(F)F)c5)C4)ncnc3c2c1C [Compound 331, 3,4-dimethyl-8-[(3S)-3-[[2-(trifluoromethyl)-4-pyridyl]oxy]pyrrolidin-1-yl]pyrimido [4′,5′:4,5]thieno[2,3-c] pyridazine] |
| – | – | 129 | 80.5 | Cc1nnc2sc3c(N4CC[C@H](Oc5cccnc5)C4)ncnc3c2c1C [Compound 332, 3,4-dimethyl-8-[(3S)-3-(3-pyridyloxy)pyrrolidin-1-yl] pyrimido[4′,5′:4,5]thieno [2,3-c]pyridazine] |
